One assay has as its target PI3Kdelta (Homo sapiens (Human), UniProt O00329). The experiment in a line: HTRF PI3K biochemical assay, delta isoform. Conditions: 0.3 nM enzyme, 100 uM ATP, 5 uM PIP2, form screened per table. The method, boiled down: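 PI3Kδ at 0.3 nM preincubated 15 min with compound, then reacted 1 h at room temperature with 100 uM ATP and 5 uM PIP2. PIP3 product detected by competitive HTRF displacing biotin-PIP3 from GST-GRP1 PH domain, so signal falls with activity. 10-point 3-fold dose response.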
Background: TR-FRET usually uses a lanthanide donor and a delayed reading to cut background.

A further assay addresses PI3Kalpha (Homo sapiens (Human), UniProt P42336). Nature of the assay: HTRF PI3K biochemical assay, alpha isoform (selectivity versus delta). The conditions noted are these: relative ratio PI3K-alpha IC50 value / PI3K-delta IC50 value. The method, boiled down: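 Recombinant human PI3Kα (0.5 nM) preincubated 15 min with compound, then reacted 1 h at room temperature with 100 uM ATP and 5 uM PIP2. PIP3 formation detected by HTRF competition with biotin-PIP3 for GST-GRP1 PH domain (Eu/APC, 665/620 nm); product lowers signal.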

pIC50: −log10 of the molar value.

By pIC50 is commonly meant the IC50 on a negative log10 scale, so that one unit is a factor of ten. Read a high pIC50 as a small IC50.

PI3Kalpha, sequence (P42336 whole entry, the tested form may be a part, canonical isoform): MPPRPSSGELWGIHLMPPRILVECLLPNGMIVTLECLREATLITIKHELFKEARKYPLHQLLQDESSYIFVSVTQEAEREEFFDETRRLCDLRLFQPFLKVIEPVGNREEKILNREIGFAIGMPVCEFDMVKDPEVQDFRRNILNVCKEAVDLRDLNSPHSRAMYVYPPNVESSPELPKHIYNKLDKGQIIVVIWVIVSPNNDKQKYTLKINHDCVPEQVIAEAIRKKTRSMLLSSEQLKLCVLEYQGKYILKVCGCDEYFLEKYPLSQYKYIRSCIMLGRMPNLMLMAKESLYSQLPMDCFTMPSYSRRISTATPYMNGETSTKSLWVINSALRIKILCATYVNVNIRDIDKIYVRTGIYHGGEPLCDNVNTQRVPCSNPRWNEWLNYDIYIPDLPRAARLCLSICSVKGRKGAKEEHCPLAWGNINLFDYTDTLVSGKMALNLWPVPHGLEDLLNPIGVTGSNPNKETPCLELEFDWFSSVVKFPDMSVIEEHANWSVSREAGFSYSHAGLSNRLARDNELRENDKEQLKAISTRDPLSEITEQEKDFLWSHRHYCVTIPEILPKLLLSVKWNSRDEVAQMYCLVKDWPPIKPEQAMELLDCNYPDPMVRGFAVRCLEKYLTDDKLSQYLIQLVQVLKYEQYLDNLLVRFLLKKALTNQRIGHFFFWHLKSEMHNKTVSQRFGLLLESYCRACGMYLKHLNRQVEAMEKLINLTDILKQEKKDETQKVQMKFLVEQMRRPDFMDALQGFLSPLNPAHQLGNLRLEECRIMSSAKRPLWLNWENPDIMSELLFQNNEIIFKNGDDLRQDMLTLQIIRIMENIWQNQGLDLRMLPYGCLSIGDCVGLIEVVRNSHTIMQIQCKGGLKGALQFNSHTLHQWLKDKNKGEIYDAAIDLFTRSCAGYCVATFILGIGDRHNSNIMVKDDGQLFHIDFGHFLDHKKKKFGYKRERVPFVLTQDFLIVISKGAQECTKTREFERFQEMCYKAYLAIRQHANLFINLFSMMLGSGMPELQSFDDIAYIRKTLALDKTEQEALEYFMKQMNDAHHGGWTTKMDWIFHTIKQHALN
PI3Kalpha, sequence (P27986 whole entry partner, the tested form may be a part, canonical isoform): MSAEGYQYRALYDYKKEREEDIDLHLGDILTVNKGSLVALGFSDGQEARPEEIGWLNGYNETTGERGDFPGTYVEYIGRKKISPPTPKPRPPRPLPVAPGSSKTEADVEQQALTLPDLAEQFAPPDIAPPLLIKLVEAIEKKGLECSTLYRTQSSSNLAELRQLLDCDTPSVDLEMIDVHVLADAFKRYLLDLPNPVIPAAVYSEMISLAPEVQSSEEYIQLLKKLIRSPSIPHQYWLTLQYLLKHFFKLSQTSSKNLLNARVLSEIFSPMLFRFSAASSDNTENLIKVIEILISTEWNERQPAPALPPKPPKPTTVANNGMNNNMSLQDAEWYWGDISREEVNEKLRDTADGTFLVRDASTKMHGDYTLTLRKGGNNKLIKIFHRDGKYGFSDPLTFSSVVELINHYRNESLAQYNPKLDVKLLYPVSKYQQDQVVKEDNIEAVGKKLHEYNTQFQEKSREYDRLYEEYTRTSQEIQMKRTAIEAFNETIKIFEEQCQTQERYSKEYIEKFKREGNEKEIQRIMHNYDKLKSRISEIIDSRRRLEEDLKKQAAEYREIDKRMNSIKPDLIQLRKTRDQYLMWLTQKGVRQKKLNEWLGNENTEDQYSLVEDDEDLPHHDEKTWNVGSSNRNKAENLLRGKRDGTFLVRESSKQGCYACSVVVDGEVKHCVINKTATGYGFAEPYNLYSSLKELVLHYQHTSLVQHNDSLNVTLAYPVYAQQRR
PI3Kdelta, sequence (O00329 whole entry, the tested form may be a part, canonical isoform): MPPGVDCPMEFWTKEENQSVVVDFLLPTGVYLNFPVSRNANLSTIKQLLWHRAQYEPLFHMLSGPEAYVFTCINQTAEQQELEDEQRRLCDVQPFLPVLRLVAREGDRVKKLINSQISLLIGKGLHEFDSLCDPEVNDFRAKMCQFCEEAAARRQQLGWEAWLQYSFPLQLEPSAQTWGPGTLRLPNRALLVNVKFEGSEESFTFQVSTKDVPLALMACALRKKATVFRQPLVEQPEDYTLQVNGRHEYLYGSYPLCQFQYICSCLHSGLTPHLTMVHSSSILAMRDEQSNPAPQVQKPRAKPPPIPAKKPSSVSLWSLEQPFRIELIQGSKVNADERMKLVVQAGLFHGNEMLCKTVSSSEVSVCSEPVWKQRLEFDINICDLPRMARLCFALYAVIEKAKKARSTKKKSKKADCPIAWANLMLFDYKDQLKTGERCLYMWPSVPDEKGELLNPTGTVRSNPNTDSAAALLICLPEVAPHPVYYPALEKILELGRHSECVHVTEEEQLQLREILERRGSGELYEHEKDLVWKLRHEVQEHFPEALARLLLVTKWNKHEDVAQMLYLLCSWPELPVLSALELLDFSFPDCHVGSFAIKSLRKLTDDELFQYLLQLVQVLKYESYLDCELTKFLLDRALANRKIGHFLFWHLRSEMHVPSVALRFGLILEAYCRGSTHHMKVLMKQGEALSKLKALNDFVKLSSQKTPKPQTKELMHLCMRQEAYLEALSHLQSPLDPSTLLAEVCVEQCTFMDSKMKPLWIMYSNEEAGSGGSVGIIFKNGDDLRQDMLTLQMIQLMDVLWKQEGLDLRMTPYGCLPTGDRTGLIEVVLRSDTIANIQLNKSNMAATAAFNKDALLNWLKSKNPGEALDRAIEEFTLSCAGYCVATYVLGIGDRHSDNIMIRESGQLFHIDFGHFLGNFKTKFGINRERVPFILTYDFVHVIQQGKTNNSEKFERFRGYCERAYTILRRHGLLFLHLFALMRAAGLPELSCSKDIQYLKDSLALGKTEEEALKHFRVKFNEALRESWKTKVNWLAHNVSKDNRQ
PI3Kdelta, sequence (P27986 whole entry partner, the tested form may be a part, canonical isoform): as the sequence (P27986 whole entry partner, the tested form may be a part, canonical isoform) above

Molecule `C[C@@H]1CN(c2nc(-c3cnn(C)c3)ncc2C#N)CCN1C(=O)C1(C)CC1` [Compound 4-4, 4-{(3R)-3-methyl-4-[(1-methylcyclopropyl)carbonyl]piperazin-1-yl}-2-(1-methyl-1H-pyrazol-4-yl)pyrimidine-5-carbonitrile] gave a negative-log IC50 (pIC50) at PI3Kdelta of 5.96. The “Selectivity versus PI3Kalpha” value at PI3Kalpha was over 10.

`C[C@@H]1CN(c2nc(-c3cnn(C)c3)ncc2C#N)CCN1C(=O)C1CCC1(F)F` (stereo partly drawn) [Compound 4-5, 4-{(3R)-4-[(2,2-difluorocyclobutyl)carbonyl]-3-methylpiperazin-1-yl}-2-(1-methyl-1H-pyrazol-4-yl)pyrimidine-5-carbonitrile] showed a pIC50 against PI3Kdelta of 6.26. On PI3Kalpha, the “Selectivity versus PI3Kalpha” value is on record as over 10.

`C[C@@H]1CN(c2nc(-c3cnn(C)c3)ncc2C#N)CCN1C(=O)C1CCCC1` [Compound 4-6, 4-[(3R)-4-(cyclopentylcarbonyl)-3-methylpiperazin-1-yl]-2-(1-methyl-1H-pyrazol-4-yl)pyrimidine-5-carbonitrile] showed a pIC50 against PI3Kdelta of 6.06. On PI3Kalpha, the “Selectivity versus PI3Kalpha” value is recorded as over 10.

Turning to `C[C@@H]1CN(c2nc(-c3cnn(C)c3)ncc2C#N)CCN1C(=O)C1CC12CCCC2` (stereo partly drawn) [Compound 4-7, 2-(1-methyl-1H-pyrazol-4-yl)-4-[(3R)-3-methyl-4-(spiro[2.4]hept-1-ylcarbonyl)piperazin-1-yl]pyrimidine-5-carbonitrile], at PI3Kdelta, the pIC50 was 7.06. The “Selectivity versus PI3Kalpha” value at PI3Kalpha is listed as over 10.

At PI3Kdelta, `C[C@@H]1C[C@H]1C(=O)N1CCN(c2nc(-c3cnn(C)c3)ncc2C#N)C[C@H]1C` [Compound 4-8, 4-[(3R)-3-methyl-4-{[(1R,2R)-2-methylcyclopropyl]carbonyl}piperazin-1-yl]-2-(1-methyl-1H-pyrazol-4-yl)pyrimidine-5-carbonitrile] had a pIC50 of 7.49. Also, the “Selectivity versus PI3Kalpha” value on PI3Kalpha was over 10.

On PI3Kdelta, `C[C@@H]1C[C@@H]1C(=O)N1CCN(c2nc(-c3cnn(C)c3)ncc2C#N)C[C@H]1C` [Compound 4-9, 4-[(3R)-3-methyl-4-{[(1S,2R)-2-methylcyclopropyl]carbonyl}piperazin-1-yl]-2-(1-methyl-1H-pyrazol-4-yl)pyrimidine-5-carbonitrile] had a pIC50 of 7.10. In addition, the “Selectivity versus PI3Kalpha” value at PI3Kalpha is recorded as over 10.

`C[C@@H]1CN(c2nc(-c3cnn(C)c3)ncc2C#N)CCN1c1cccc([N+](=O)[O-])c1` [Compound 4-11, 4-[(3R)-3-methyl-4-(3-nitrophenyl)piperazin-1-yl]-2-(1-methyl-1H-pyrazol-4-yl)pyrimidine-5-carbonitrile]: the pIC50 against PI3Kdelta was 7.11. For the same molecule, the “Selectivity versus PI3Kalpha” value at PI3Kalpha is on record as over 10.

Turning to `C[C@@H]1CN(c2nc(-c3cnn(C)c3)ncc2C#N)CCN1c1cccc(C#N)c1` [Compound 4-12, 4-[(3R)-4-(3-cyanophenyl)-3-methylpiperazin-1-yl]-2-(1-methyl-1H-pyrazol-4-yl)pyrimidine-5-carbonitrile], the pIC50 on PI3Kdelta is 7.07. Also, on PI3Kalpha, the “Selectivity versus PI3Kalpha” value is on record as over 10.

The molecule `C[C@@H]1CN(c2nc(-c3cnn(C)c3)ncc2C#N)CCN1c1cccc(S(C)(=O)=O)c1` [Compound 4-13, 4-{(3R)-3-methyl-4-[3-(methylsulfonyl)phenyl]piperazin-1-yl}-2-(1-methyl-1H-pyrazol-4-yl)pyrimidine-5-carbonitrile] showed a pIC50 at PI3Kdelta of 7.52. In addition, on PI3Kalpha, the “Selectivity versus PI3Kalpha” value is given as over 10.

Take `C[C@@H]1CN(c2ncc(C#CCO)c(-c3cnn(C)c3)n2)CCN1C(=O)C1CC1` [Compound 5-1, 3-{2-[(3R)-4-(cyclopropylcarbonyl)-3-methylpiperazin-1-yl]-4-(1-methyl-1H-pyrazol-4-yl)pyrimidin-5-yl}prop-2-yn-1-ol]: the pIC50 against PI3Kdelta is 7.72. Moreover, the “Selectivity versus PI3Kalpha” value at PI3Kalpha is over 10.

As to `C[C@@H]1CN(c2nc(C#N)cc(-c3cnn(C)c3)n2)CCN1C(=O)C1CC1` [Compound 5-2, 2-[(3R)-4-(cyclopropylcarbonyl)-3-methylpiperazin-1-yl]-6-(1-methyl-1H-pyrazol-4-yl)pyrimidine-4-carbonitrile], at PI3Kdelta, the pIC50 was 6.62. For the same molecule, on PI3Kalpha, the “Selectivity versus PI3Kalpha” value is recorded as over 10.

In the case of `C[C@@H]1CN(c2cc(C#N)nc(-c3cnn(C)c3)n2)CCN1C(=O)C1CC1` [Compound 5-3, 6-[(3R)-4-(cyclopropylcarbonyl)-3-methylpiperazin-1-yl]-2-(1-methyl-1H-pyrazol-4-yl)pyrimidine-4-carbonitrile], the pIC50 against PI3Kdelta is 6.62. The “Selectivity versus PI3Kalpha” value at PI3Kalpha is reported as over 10.

As for `C[C@@H]1CN(c2ncc(C#N)c(-c3cnn(C)c3)n2)CCN1C(=O)C1CC1` [Compound 5-4, 2-[(3R)-4-(cyclopropylcarbonyl)-3-methylpiperazin-1-yl]-4-(1-methyl-1H-pyrazol-4-yl)pyrimidine-5-carbonitrile], the pIC50 against PI3Kdelta was 7.68. Moreover, the “Selectivity versus PI3Kalpha” value at PI3Kalpha was over 10.

The molecule `CC(C)c1cnc(-c2cnc(N3CCN(C(=O)C4CC4)[C@H](C)C3)nc2-c2cnn(C)c2)o1` [Compound 5-5, 2-[(3R)-4-(cyclopropylcarbonyl)-3-methylpiperazin-1-yl]-5-[5-(1-methylethyl)-1,3-oxazol-2-yl]-4-(1-methyl-1H-pyrazol-4-yl)pyrimidine] gave a pIC50 at PI3Kdelta of 6.39. Further, the “Selectivity versus PI3Kalpha” value at PI3Kalpha was over 10.

On PI3Kdelta, `CC(C)C[C@@H]1CN(c2nc(-c3cnn(C)c3)ncc2C#N)CCN1C(=O)C1CC1` [Compound 5-6, 4-[(3R)-4-(cyclopropylcarbonyl)-3-(2-methylpropyl)piperazin-1-yl]-2-(1-methyl-1H-pyrazol-4-yl)pyrimidine-5-carbonitrile] showed a pIC50 of 6.72. For the same molecule, on PI3Kalpha, the “Selectivity versus PI3Kalpha” value is listed as over 10.

For the molecule `Cn1cc(-c2ncc(C#N)c(N3CCN(C(=O)C4CC4)[C@H](CO)C3)n2)cn1` [Compound 5-7, 4-[(3S)-4-(cyclopropylcarbonyl)-3-(hydroxymethyl)piperazin-1-yl]-2-(1-methyl-1H-pyrazol-4-yl)pyrimidine-5-carbonitrile], the pIC50 against PI3Kdelta was 6.12. For the same molecule, the “Selectivity versus PI3Kalpha” value at PI3Kalpha is over 10.

The molecule `CC(C)C#Cc1cnc(N2CCN(C(=O)C3CC3)[C@H](C)C2)nc1-c1cnn(C)c1` [Compound 5-8, 2-[(3R)-4-(cyclopropylcarbonyl)-3-methylpiperazin-1-yl]-5-(3-methylbut-1-yn-1-yl)-4-(1-methyl-1H-pyrazol-4-yl)pyrimidine] showed a pIC50 against PI3Kdelta of 7.92. For the same molecule, the “Selectivity versus PI3Kalpha” value on PI3Kalpha is over 10.

`C#Cc1cnc(N2CCN(C(=O)C3CC3)[C@H](C)C2)nc1-c1cnn(C)c1` [Compound 5-9, 2-[(3R)-4-(cyclopropylcarbonyl)-3-methylpiperazin-1-yl]-5-ethynyl-4-(1-methyl-1H-pyrazol-4-yl)pyrimidine]: the pIC50 on PI3Kdelta was 7.30. In addition, the “Selectivity versus PI3Kalpha” value on PI3Kalpha is over 10.

In the case of `CSc1cnc(N2CCN(C(=O)C3CC3)[C@H](C)C2)nc1-c1cnn(C)c1` [Compound 5-10, 2-[(3R)-4-(cyclopropylcarbonyl)-3-methylpiperazin-1-yl]-4-(1-methyl-1H-pyrazol-4-yl)-5-(methylsulfanyl)pyrimidine], the negative-log IC50 (pIC50) on PI3Kdelta is 6.47. Besides, at PI3Kalpha, the “Selectivity versus PI3Kalpha” value is over 10.

At PI3Kdelta, `C[C@@H]1CN(c2ncc(C(F)F)c(-c3cnn(C)c3)n2)CCN1C(=O)C1CC1` [Compound 5-11, 2-[(3R)-4-(cyclopropylcarbonyl)-3-methylpiperazin-1-yl]-5-(difluoromethyl)-4-(1-methyl-1H-pyrazol-4-yl)pyrimidine] had a negative-log IC50 (pIC50) of 6.43. Further, the “Selectivity versus PI3Kalpha” value on PI3Kalpha is listed as over 10.

In the case of `CCOC(=O)c1cnc(N2CCN(C(=O)C3CC3)[C@H](C)C2)nc1-c1cnn(C)c1` [Compound 5-12, ethyl 2-[(3R)-4-(cyclopropylcarbonyl)-3-methylpiperazin-1-yl]-4-(1-methyl-1H-pyrazol-4-yl)pyrimidine-5-carboxylate], the pIC50 against PI3Kdelta is 6.74. Moreover, the “Selectivity versus PI3Kalpha” value on PI3Kalpha is over 10.

Regarding `C[C@@H]1CN(c2nc(-c3cnn(C)c3)ncc2Cl)CCN1C(=O)C1CC1` [Compound 5-13, 5-chloro-4-[(3R)-4-(cyclopropylcarbonyl)-3-methylpiperazin-1-yl]-2-(1-methyl-1H-pyrazol-4-yl)pyrimidine], the pIC50 at PI3Kdelta is 6.21. For the same molecule, the “Selectivity versus PI3Kalpha” value at PI3Kalpha was over 10.

For the molecule `C[C@@H]1CN(c2nc(-c3cnn(C)c3)nc(N)c2C#N)CCN1C(=O)C1CC1` [Compound 6-1, 4-amino-6-[(3R)-4-(cyclopropylcarbonyl)-3-methylpiperazin-1-yl]-2-(1-methyl-1H-pyrazol-4-yl)pyrimidine-5-carbonitrile], at PI3Kdelta, the pIC50 was 6.89. Also, the “Selectivity versus PI3Kalpha” value at PI3Kalpha is listed as over 10.

In the case of `CC(C)NC(=O)Nc1nc(-c2cnn(C)c2)nc(N2CCN(C(=O)C3CC3)[C@H](C)C2)c1C#N` [Compound 6-2, 1-{5-cyano-6-[(3R)-4-(cyclopropylcarbonyl)-3-methylpiperazin-1-yl]-2-(1-methyl-1H-pyrazol-4-yl)pyrimidin-4-yl}-3-(1-methylethyl)urea], the pIC50 at PI3Kdelta is 8.25. Besides, the “Selectivity versus PI3Kalpha” value on PI3Kalpha was over 10.

`CC(=O)Nc1nc(-c2cnn(C)c2)nc(N2CCN(C(=O)C3CC3)[C@H](C)C2)c1C#N` [Compound 6-3, N-{5-cyano-6-[(3R)-4-(cyclopropylcarbonyl)-3-methylpiperazin-1-yl]-2-(1-methyl-1H-pyrazol-4-yl)pyrimidin-4-yl}acetamide] gave a pIC50 at PI3Kdelta of 6.32. Besides, the “Selectivity versus PI3Kalpha” value at PI3Kalpha was over 10.

Molecule `C[C@@H]1CN(c2nc(-c3cnn(C)c3)nc(NCC(F)(F)F)c2C#N)CCN1C(=O)C1CC1` [Compound 6-4, 4-[(3R)-4-(cyclopropylcarbonyl)-3-methylpiperazin-1-yl]-2-(1-methyl-1H-pyrazol-4-yl)-6-[(2,2,2-trifluoroethyl)amino]pyrimidine-5-carbonitrile] gave a pIC50 against PI3Kdelta of 8.08. For the same molecule, the “Selectivity versus PI3Kalpha” value at PI3Kalpha was over 10.

Values taken from patent publication US11230547B2, “Purine inhibitors of human phosphatidylinositol 3-kinase delta” (Merck Sharp & Dohme Corp., priority 2017, dated 2022).
